From publication PMC9848300, “Discovery of novel enasidenib analogues targeting inhibition of mutant isocitrate dehydrogenase 2 as antileukaemic agents” (Journal of Enzyme Inhibition and Medicinal Chemistry, 2023)

Legend:
active Caspase 3 = assay: Western blot analysis for apoptotic markers; type: cell-based, human; details: HL-60(TB) cells
Method: (§1) Cysteine-containing aspartic acid-specific proteases, caspases provide essential links in cell controlling the apoptotic machinery[45]^,[46]. For this reason, this study was further extended to investigate the mechanism of compound 6c to provoke apoptosis in HL-60(TB) leukaemia cell line.
(§2) Compound 6c was incubated with the seeded cells following the procedure described by W. Neal Burnette[60].

active Caspase 9 = assay: Western blot analysis for apoptotic markers; type: cell-based, human; details: HL-60(TB) cells
Method: as §1, §2

Brc1cccc(/C=N/Nc2nc(N/N=C/c3cccc(Br)c3)nc(N3CCOCC3)n2)c1 [compound 6c, 2,4-Bis[(E)-2-[(3-bromophenyl)methylidene]hydrazin-1-yl]-6-(morpholin-4-yl)-1,3,5-triazine]
expression of active caspase 3 in comparison to the control (active Caspase 3): about 3 fold
expression of active caspase 9 in comparison to the control (active Caspase 9): ~4 fold
